Measured values taken from ChEMBL document CHEMBL1144332, “1,2,4-Benzothiadiazine derivatives as alpha1 and 5-HT1A receptor ligands” (Bioorg Med Chem Lett, 2005).

What was measured:
Rattus norvegicus = species on record: Rattus norvegicus; experiment: Selectivity towards alpha 1D and alpha 1B adrenergic receptors
[1] = molecular target: T1, Alpha-1B adrenergic receptor (Rattus norvegicus) (UniProt P15823); experiment: Antagonist potency against the alpha-1B adrenergic receptor determined in isolated rat spleen; assay type: functional, tissue-based
T1 sequence (whole entry): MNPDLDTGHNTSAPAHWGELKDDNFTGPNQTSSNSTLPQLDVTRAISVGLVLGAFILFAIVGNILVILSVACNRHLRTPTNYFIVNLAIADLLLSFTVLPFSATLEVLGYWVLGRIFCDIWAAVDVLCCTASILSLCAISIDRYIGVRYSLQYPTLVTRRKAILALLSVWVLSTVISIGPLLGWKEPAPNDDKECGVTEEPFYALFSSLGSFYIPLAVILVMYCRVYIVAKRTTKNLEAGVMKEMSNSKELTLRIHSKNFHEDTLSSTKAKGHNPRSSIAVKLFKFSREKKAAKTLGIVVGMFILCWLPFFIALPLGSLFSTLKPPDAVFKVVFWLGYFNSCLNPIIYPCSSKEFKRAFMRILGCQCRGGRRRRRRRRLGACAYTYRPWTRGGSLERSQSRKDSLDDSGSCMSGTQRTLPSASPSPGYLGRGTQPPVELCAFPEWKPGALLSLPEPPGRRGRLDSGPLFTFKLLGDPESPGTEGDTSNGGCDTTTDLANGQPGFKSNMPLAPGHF

[2] = molecular target: Alpha adrenergic receptor 1A and 1D (Rattus norvegicus) (UniProt P23944+P43140); experiment: Selectivity towards alpha 1D and alpha 1A adrenergic receptors; assay type: protein assay
[3] = molecular target: Alpha adrenergic receptor 1A and 1B (Rattus norvegicus) (UniProt P15823+P43140); experiment: Selectivity towards alpha 1B and alpha 1A adrenergic receptors; assay type: protein assay
[4] = Selectivity towards 5-hydroxytryptamine 1A and alpha 1D adrenergic receptors was determined
[5] = molecular target: T2, Alpha-1D adrenergic receptor (Rattus norvegicus) (UniProt P23944); experiment: Antagonist potency against the alpha-1D adrenergic receptor was determined in isolated rat thoracic aorta; assay type: functional, tissue-based
T2 sequence (whole entry): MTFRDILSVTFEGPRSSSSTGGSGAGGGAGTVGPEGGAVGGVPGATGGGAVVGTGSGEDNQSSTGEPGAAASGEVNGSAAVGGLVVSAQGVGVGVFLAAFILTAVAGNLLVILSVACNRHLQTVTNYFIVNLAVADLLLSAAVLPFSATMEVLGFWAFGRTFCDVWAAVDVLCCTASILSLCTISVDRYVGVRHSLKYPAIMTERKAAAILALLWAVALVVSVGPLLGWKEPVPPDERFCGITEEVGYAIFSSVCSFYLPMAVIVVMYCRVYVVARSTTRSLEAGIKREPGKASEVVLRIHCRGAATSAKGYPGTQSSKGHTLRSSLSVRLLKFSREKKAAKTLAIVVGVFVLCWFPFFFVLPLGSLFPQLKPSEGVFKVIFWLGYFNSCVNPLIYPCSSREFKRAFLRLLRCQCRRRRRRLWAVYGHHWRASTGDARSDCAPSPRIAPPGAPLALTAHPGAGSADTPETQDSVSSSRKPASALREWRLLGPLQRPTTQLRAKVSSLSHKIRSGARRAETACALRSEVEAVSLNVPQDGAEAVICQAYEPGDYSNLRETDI

[6] = molecular target: T3, Alpha-1A adrenergic receptor (Rattus norvegicus) (UniProt P43140); experiment: Antagonist potency against the alpha-1A adrenergic receptor was determined in isolated rat prostatic vas deferens; assay type: functional, tissue-based
T3 sequence (whole entry): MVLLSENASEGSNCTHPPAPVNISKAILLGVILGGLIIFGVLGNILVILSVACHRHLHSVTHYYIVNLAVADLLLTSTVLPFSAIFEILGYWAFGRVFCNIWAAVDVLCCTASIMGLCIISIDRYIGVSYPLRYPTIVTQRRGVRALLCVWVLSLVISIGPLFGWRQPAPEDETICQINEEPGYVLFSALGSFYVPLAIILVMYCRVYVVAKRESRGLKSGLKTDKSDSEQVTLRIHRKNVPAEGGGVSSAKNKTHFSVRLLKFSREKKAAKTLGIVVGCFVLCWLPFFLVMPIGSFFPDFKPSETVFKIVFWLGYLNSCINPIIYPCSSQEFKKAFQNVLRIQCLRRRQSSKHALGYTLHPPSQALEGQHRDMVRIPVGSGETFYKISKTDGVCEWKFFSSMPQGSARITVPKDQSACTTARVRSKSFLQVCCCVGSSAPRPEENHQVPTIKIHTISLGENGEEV

[7] = molecular target: T4, 5-hydroxytryptamine receptor 1A (Homo sapiens, UniProt P08908); experiment: Inhibitory constant value against the 5-hydroxytryptamine 1A receptor
T4 sequence (P08908 whole entry): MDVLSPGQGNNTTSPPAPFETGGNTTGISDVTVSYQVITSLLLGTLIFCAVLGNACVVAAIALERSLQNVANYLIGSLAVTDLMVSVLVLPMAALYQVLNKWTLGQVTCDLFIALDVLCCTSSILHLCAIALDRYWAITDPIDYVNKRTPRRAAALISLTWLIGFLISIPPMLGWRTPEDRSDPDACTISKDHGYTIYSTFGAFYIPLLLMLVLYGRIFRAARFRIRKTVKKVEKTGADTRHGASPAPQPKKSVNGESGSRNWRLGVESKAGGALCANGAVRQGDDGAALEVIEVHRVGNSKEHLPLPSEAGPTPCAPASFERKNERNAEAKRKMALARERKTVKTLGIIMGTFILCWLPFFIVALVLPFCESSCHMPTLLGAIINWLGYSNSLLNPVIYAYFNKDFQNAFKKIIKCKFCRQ

[8] = molecular target: T5, 5-hydroxytryptamine receptor 1A (Homo sapiens) (UniProt P08908); experiment: Potency against the 5-hydroxytryptamine 1A receptor determined by using [35S]GTP-gamma-S, binding; assay type: functional
T5 sequence (whole entry): T4 sequence (P08908 whole entry)

[9] = molecular target: T5, 5-hydroxytryptamine receptor 1A (Homo sapiens); experiment: The maximal stimulation of [35S]GTP-gamma-S, binding (Emax) against the 5-hydroxytryptamine 1A receptor; assay type: functional
[10] = molecular target: T4, 5-hydroxytryptamine receptor 1A; experiment: Inhibitory constant value against 5-hydroxytryptamine 1A receptor

SMILES	Selectivity (Rattus norvegicus)	pKb [1]	Selectivity [2]	Selectivity [3]	Selectivity [4]	pKb [5]	pKb [6]	Ki [7] [nM]	pD2 [8]	Emax [9]	Ki [10] [nM]
COc1ccccc1N1CCN(CC2Nc3cc(C)ccc3S(=O)(=O)N2)CC1 (configuration not stated)	0.55	6.24	0.95	2	< 10	5.98	6				
COc1ccccc1N1CCN(CC2Nc3ccccc3S(=O)(=O)N2)CC1 (configuration not stated)	0.23	5.97	0.35	1.5	275	5.34	5.81	16.6			
COc1ccccc1N1CCN(CC2Nc3cc(Cl)ccc3S(=O)(=O)N2)CC1 (configuration not stated)	1	5.09	1	1	1100	5	5.05	9.12	6.92	23	
COc1ccccc1N1CCN(CC2=NS(=O)(=O)c3ccccc3N2)CC1	135	5.46	> 389	> 3	< 0.03	7.59	< 5				> 1000

Further lines, with some results ahead:

Selectivity (Rattus norvegicus)	pKb [1]	Selectivity [2]	Selectivity [3]	Selectivity [4]	pKb [5]	pKb [6]	Ki [7] [nM]	pD2 [8]	Emax [9]	SMILES	Ki [10] [nM]
0.28	6.05	> 3	> 11		5.5	< 5	107			COc1ccccc1N1CCN(CC2=NS(=O)(=O)c3ccc(C)cc3N2)CC1	
	7.48						1.26	9.27	26	COc1ccccc1N1CCN(CCN2C(=O)CC3(CCCC3)CC2=O)CC1 [BMY-7378]	
38	6.17	295	8	0.38	7.75	5.28	46.8			COc1ccccc1N1CCN(CC2=NS(=O)(=O)c3ccc(Cl)cc3N2)CC1	
